From patent publication US11643439B2, “Multi-target compound with anticoagulation and antiplatelet activity, preparation method therefor, and use thereof” (SHAANXI MICOT TECHNOLOGY LIMITED COMPANY, priority 2015, dated 2023)
Bridge positions count the residues as written; N and C are the ends. Square brackets hold non-standard residues; d marks the D form. Peptide text beside a SMILES is read from it. hArg = N=C(N)NCCCC[C@H](N)C(=O)O; Mpa = O=C(O)CCS

Tested on: ADP-induced human platelet aggregation
Test: ADP-induced human platelet aggregation in vitro
Assay type: cell-based
Conditions: human PRP, 3 × 10−6 mol/L
Description: The drawn blood was centrifuged at 810 rpm for 8 minutes to obtain platelet rich plasma (PRP), which was taken out, then the blood sample was further centrifuged at 3510 rpm for 8 minutes to obtain platelet poor plasma (PPP).
Determination of platelet aggregation: A platelet aggregation instrument was started up and preheated for 30 minutes, and then calibrated with PPP. Into the test cups 270 μl of PRP was added, and then 10 μl of polypeptide 1, polypeptide 2, polypeptide 3 or polypeptide 4 (1.0×10^−7 mol/L) and/or 20 μl of physiological saline were added respectively, till a total volume of 300 μl. After incubation for 5 min, 5 μl of inducer ADP and 5 μl of epinephrine were added to start the test. After 5 minutes, the test was completed, and the maximum aggregation rate within the 5 minutes was recorded, and the data and maps were printed.

SMILES: N=C(N)NCCCC[C@@H]1NC(=O)CCSSC[C@@H](C(N)=O)NC(=O)[C@@H]2CCCN2C(=O)[C@H](Cc2c[nH]c3ccccc23)NC(=O)[C@H](CC(=O)O)NC(=O)CNC1=O [Integrilin] ([Mpa][hArg]GDWPC-NH2; disulfide 1-7)
- inhibitory rate of platelet aggregation: 100%
